This is an account of results in ChEMBL document CHEMBL5252520, “Inhibition of phospho-MurNAc-pentapeptide translocase (MraY) by nucleoside natural product antibiotics, bacteriophage ϕX174 lysis protein E, and cationic antibacterial peptides” (Bioorg Med Chem, 2016).

In general, IC50 refers to the concentration that inhibits the measured activity by half. As usually defined, the MIC is the lowest concentration that inhibits growth of the organism.

Experiment [1] in a line: Inhibition of bacterial MraY. More on the design: species or system Bacteria.
Experiment [2] in a line: Inhibition of Campylobacter jejuni PgIC expressed in Escherichia coli by affinity chromatography.
The subject of experiment [3] is Escherichia coli. Briefly: Antibacterial activity against Escherichia coli assessed as reduction in bacterial growth. It is filed as functional.
In the next experiment the test system is Pseudomonas aeruginosa. The experiment is described as follows: Antibacterial activity against Pseudomonas aeruginosa H103 assessed as reduction in bacterial growth. It is filed as functional.
Experiment [4] has as its target T1, Decaprenyl-phosphate N-acetylglucosaminephosphotransferase (Mycolicibacterium smegmatis (strain ATCC 700084 / mc(2)155) (Mycobacteriumsmegmatis), UniProt A0R211).
T1 sequence (A0R211 whole entry): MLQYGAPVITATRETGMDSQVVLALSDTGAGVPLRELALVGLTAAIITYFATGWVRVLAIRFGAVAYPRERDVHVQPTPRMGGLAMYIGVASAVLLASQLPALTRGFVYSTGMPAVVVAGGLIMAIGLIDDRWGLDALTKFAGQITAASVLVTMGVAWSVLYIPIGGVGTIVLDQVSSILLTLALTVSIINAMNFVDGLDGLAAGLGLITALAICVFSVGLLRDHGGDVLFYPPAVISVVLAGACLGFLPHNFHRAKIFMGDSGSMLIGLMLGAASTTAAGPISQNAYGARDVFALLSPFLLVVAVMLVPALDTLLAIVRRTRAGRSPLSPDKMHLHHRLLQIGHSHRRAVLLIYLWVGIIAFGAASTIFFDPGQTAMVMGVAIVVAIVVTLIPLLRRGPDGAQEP
The experiment is described as follows: Inhibition of Mycobacterium smegmatis ATCC 607 WecA.

Experiment [5] addresses T2, Phospho-N-acetylmuramoyl-pentapeptide-transferase (Bacillus subtilis (strain 168), UniProt Q03521).
T2 sequence (Q03521 whole entry): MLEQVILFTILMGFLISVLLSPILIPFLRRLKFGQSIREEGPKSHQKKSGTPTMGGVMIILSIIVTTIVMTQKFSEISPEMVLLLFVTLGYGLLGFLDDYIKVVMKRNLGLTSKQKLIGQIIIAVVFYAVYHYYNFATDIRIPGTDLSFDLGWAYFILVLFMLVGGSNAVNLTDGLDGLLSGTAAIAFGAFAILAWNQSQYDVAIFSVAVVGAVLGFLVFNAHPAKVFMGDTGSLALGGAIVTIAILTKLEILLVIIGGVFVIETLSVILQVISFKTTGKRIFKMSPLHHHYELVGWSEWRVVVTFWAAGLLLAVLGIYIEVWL
The experiment is described as follows: Inhibition of Bacillus subtilis MraY.

Experiment [6] concerns the target T3, Phospho-N-acetylmuramoyl-pentapeptide-transferase (Escherichia coli, UniProt E2QF15).
T3 sequence (E2QF15 whole entry): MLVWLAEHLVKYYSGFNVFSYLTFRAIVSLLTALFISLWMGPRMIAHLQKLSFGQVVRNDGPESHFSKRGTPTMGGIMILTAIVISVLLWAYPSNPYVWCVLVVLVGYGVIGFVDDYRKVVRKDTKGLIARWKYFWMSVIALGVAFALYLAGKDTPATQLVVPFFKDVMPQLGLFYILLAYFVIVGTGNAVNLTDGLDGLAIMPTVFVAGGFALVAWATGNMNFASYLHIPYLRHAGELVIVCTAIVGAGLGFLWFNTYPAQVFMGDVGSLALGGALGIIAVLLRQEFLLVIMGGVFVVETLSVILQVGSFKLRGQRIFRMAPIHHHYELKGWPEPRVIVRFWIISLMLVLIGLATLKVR
Briefly: Inhibition of recombinant Escherichia coli MraY by fluorescence based analysis.

Experiment [7] concerns Escherichia coli. The experiment is described as follows: Antibacterial activity against Escherichia coli assessed as inhibition of bacterial growth. It is filed as functional.
Experiment [8] in a line: Inhibition of Bacillus subtilis TagO.

≈ marks a conversion by molar mass, not a printed value. Residues, ends and D or L forms follow the SMILES beside them.

`CCCCCCCCOC(=O)[C@H](Cc1c[nH]c2ccccc12)NC(=O)CN` came in with an IC50 in experiment [1] of 790 µM.
In experiment [2], `CSCC[C@H](NC(=O)N[C@@H](Cc1cccc(O)c1)C(=O)O)C(=O)N[C@@H](C(=O)N/C=C1\C[C@@H](O)[C@H](n2ccc(=O)[nH]c2=O)O1)[C@H](C)N(C)C(=O)[C@@H](N)Cc1cccc(O)c1` gave an IC50 of 40 µM.
Take `CC[C@H](C)[C@H](N)C(=O)N[C@@H](CC(C)C)C(=O)N[C@@H](CCCNC(=N)N)C(=O)N[C@@H](Cc1c[nH]c2ccccc12)C(=O)N1CCC[C@H]1C(=O)N[C@@H](Cc1c[nH]c2ccccc12)C(=O)N[C@@H](Cc1c[nH]c2ccccc12)C(=O)N1CCC[C@H]1C(=O)N[C@@H](Cc1c[nH]c2ccccc12)C(=O)N[C@@H](CCCNC(=N)N)C(=O)N[C@@H](CCCNC(=N)N)C(=O)N[C@@H](CCCCN)C(=O)O` (H-ILRWPWWPWRRK-OH): the IC50 in experiment [1] amounted to 50 µM. Besides, the minimum inhibitory concentration (MIC) came out at 38 µg/mL (≈ 21.3 µM) in the experiment on Escherichia coli [3] and 19 µg/mL (≈ 10.7 µM) in the experiment with Pseudomonas aeruginosa.
`CSCC[C@H](NC(=O)[C@H](CCCNC(=N)N)NC(=O)[C@H](Cc1c[nH]c2ccccc12)NC(=O)[C@H](CCC(N)=O)NC(=O)[C@H](Cc1c[nH]c2ccccc12)NC(=O)[C@H](CCCNC(=N)N)NC(=O)[C@H](CCCNC(=N)N)NC(=O)[C@H](CS)NC(=O)[C@H](CCCCN)NC(=O)[C@@H](N)CCC(=O)O)C(=O)N[C@@H](CCCCN)C(=O)N[C@@H](CCCCN)C(=O)N[C@@H](CC(C)C)C(=O)NCC(=O)O` (H-EKCRRWQWRMKKLG-OH): the MIC in the experiment with Escherichia coli [3] came out at 24 µg/mL (≈ 12.6 µM).
Molecule `N=C(N)NCCC[C@H](N)C(=O)N[C@@H](Cc1c[nH]c2ccccc12)C(=O)NCC(=O)NCC(=O)N[C@@H](Cc1c[nH]c2ccccc12)C(=O)O` (H-RWGGW-OH) returned an IC50 in experiment [1] of 233 µM.
In the case of `CC[C@H](C)[C@H](N)C(=O)N[C@@H](CC(C)C)C(=O)N1CCC[C@H]1C(=O)N[C@@H](Cc1c[nH]c2ccccc12)C(=O)N[C@@H](CCCCN)C(=O)N[C@@H](Cc1c[nH]c2ccccc12)C(=O)N1CCC[C@H]1C(=O)N[C@@H](Cc1c[nH]c2ccccc12)C(=O)N[C@@H](Cc1c[nH]c2ccccc12)C(=O)N1CCC[C@H]1C(=O)N[C@@H](Cc1c[nH]c2ccccc12)C(=O)N[C@@H](CCCN=C(N)N)C(=O)N[C@@H](CCCN=C(N)N)C(N)=O`, in experiment [1], inhibition was half-maximal at 90 µM (IC50).
On the same count and under the same terms, with `CSCC[C@H](N)C(=O)N[C@H](C(=O)N[C@@H](CCCNC(=N)N)C(=O)N[C@@H](Cc1c[nH]c2ccccc12)C(=O)N[C@H](C(=O)N[C@@H](CC(C)C)C(=O)N[C@@H](Cc1c[nH]c2ccccc12)C(=O)N[C@@H](CC(=O)O)C(=O)N[C@H](C(=O)N[C@@H](CC(C)C)C(=O)N[C@@H](C)C(=O)N[C@@H](Cc1ccccc1)C(=O)N[C@@H](CC(C)C)C(=O)N[C@@H](CC(C)C)C(=O)N[C@@H](CC(C)C)C(=O)O)[C@@H](C)O)[C@@H](C)O)C(C)C` (H-MVRWTLWDTLAFLLL-OH) the figure was 0.8 µM; with `CC(C)C[C@H](NC(=O)CNC(=O)CNC(=O)[C@@H](N)CCCNC(=N)N)C(=O)N[C@@H](Cc1c[nH]c2ccccc12)C(=O)O` (H-RGGLW-OH), 210 µM.
On to `CCCCc1ccc(NC(=O)C2=CCN(C)[C@@H]([C@H](O[C@@H]3O[C@H](CN)[C@@H](O)[C@H]3O)[C@H]3O[C@@H](n4ccc(=O)[nH]c4=O)[C@H](O)[C@@H]3O)C(=O)N2C)cc1`, for which, in [4], 0.0581 µM corresponded to half-maximal inhibition (IC50).
As to `CO[C@@H]1[C@@H](OC)[C@H](C)O[C@@H](OC(=O)C[C@@H](C)CC(=O)O[C@@H](CCCCCCCCCCC(C)C)CC(=O)O[C@H]2CN(C)[C@@H]([C@H](O[C@@H]3O[C@H](CN)[C@@H](O)[C@H]3O)[C@H]3O[C@@H](n4ccc(=O)[nH]c4=O)[C@H](O)[C@@H]3O)C(=O)N(C)[C@@H]2C(=O)O)[C@@H]1OC`, in [5], the IC50 was 100 µM.
Regarding `CC(C)C[C@H](NC(=O)CNC(=O)[C@H](Cc1c[nH]c2ccccc12)NC(=O)[C@@H](N)CCCNC(=N)N)C(=O)NCC(=O)O` (H-RWGLG-OH), the IC50 in experiment [1] was 274 µM.
Consider `O=C(O)c1c(Cl)c(Cl)c(Cl)c(Cl)c1-c1c2cc(Br)c(=O)c(Br)c-2oc2c(Br)c(O)c(Br)cc12`, for which the values for the IC50 in [5] and in experiment [1] were 850 µM and 32 µM, respectively.
With `CCCCCCCCOC(=O)[C@H](Cc1c[nH]c2ccccc12)NC(=O)[C@@H](N)CCCNC(=N)N`, in experiment [1], the IC50 is > 1000 µM. Further, the MIC with Escherichia coli [3] stood at 31 µg/mL (≈ 65.6 µM); in the experiment with Pseudomonas aeruginosa, 40 µg/mL (≈ 84.6 µM).
`CC(C)[C@H](NC(=O)N[C@H](C(=O)N[C@H](C(=O)NCCCN[C@@H](C[C@H]1O[C@@H](n2ccc(=O)[nH]c2=O)[C@H](O)[C@@H]1O)C(=O)O)[C@@H](O)C(C)C)[C@@H]1CCNC(=N)N1)C(=O)O`: in experiment [6], the IC50 came to 2 µM.
`CC[C@H](C)[C@H](NC(=O)[C@H](CCCNC(=N)N)NC(=O)[C@H](Cc1c[nH]c2ccccc12)NC(=O)[C@@H](NC(=O)[C@@H](NC(=O)[C@H](CC(C)C)NC(=O)[C@H](Cc1c[nH]c2ccccc12)NC(=O)[C@H](CCCNC(=N)N)NC(=O)[C@H](CCC(N)=O)NC(=O)[C@@H](N)C(C)C)[C@@H](C)CC)C(C)C)C(=O)N[C@@H](CCCNC(=N)N)C(=O)N[C@@H](CCCCN)C(=O)O` (H-VQRWLIVWRIRK-OH) came in with a half-maximal inhibitory concentration (IC50) in experiment [1] of 75 µM. Moreover, the MIC in the experiment with Escherichia coli [7] came out at 8 µg/mL (≈ 4.84 µM).
`CC(C)C[C@H](NC(=O)[C@H](Cc1ccccc1)NC(=O)[C@@H]1CCCN1C(=O)[C@H](Cc1c[nH]c2ccccc12)NC(=O)[C@H](Cc1c[nH]c2ccccc12)NC(=O)[C@H](Cc1c[nH]c2ccccc12)NC(=O)[C@@H]1CCCN1C(=O)[C@H](Cc1ccccc1)NC(=O)[C@H](CCCNC(=N)N)NC(=O)[C@H](CCCNC(=N)N)NC(=O)[C@@H](N)C(C)C)C(=O)N[C@@H](CCCNC(=N)N)C(=O)N[C@@H](CCCNC(=N)N)C(=O)O`: the figures for the MIC with Escherichia coli [3] and with Pseudomonas aeruginosa were 20 µg/mL (≈ 10.5 µM) and 1 µg/mL (≈ 0.526 µM), respectively.
With `CC(C)C[C@H](NC(=O)CNC(=O)[C@H](Cc1c[nH]c2ccccc12)NC(=O)CN)C(=O)N[C@@H](Cc1c[nH]c2ccccc12)C(=O)O` (H-GWGLW-OH), the IC50 in experiment [1] is 209 µM.
In the case of `CC[C@H](C)[C@H](NC(=O)[C@H](CCCCN)NC(=O)[C@H](CCCCN)NC(=O)[C@H](Cc1ccccc1)NC(=O)[C@H](CC(C)C)NC(=O)[C@H](CCCCN)NC(=O)[C@H](Cc1c[nH]c2ccccc12)NC(=O)[C@@H](N)CCCCN)C(=O)N[C@@H](CCC(=O)O)C(=O)N[C@@H](CCCCN)C(=O)O` (H-KWKLFKKIEK-OH), the results for the MIC in the experiment on Escherichia coli [3] and in the experiment on Pseudomonas aeruginosa were 1 µg/mL (≈ 0.742 µM) and 5 µg/mL (≈ 3.71 µM), respectively.
The corresponding values for `CC(=O)N[C@@H](CCCNC(=N)N)C(=O)N[C@@H](CCCNC(=N)N)C(=O)N[C@@H](Cc1c[nH]c2ccccc12)C(=O)N[C@@H](Cc1c[nH]c2ccccc12)C(=O)N[C@@H](CS)C(=O)N[C@@H](Cc1ccccc1)C(=O)O` (Ac-RRWWCF-OH) are 20 µg/mL (≈ 20.1 µM) and 45 µg/mL (≈ 45.2 µM).
Turning to `CC(C)[C@H](NC(=O)[C@@H](NC(=O)[C@H](Cc1c[nH]c2ccccc12)NC(=O)[C@H](CCCNC(=N)N)NC(=O)[C@H](Cc1c[nH]c2ccccc12)NC(=O)[C@H](Cc1c[nH]c2ccccc12)NC(=O)[C@H](CCCCN)NC(=O)[C@H](Cc1c[nH]c2ccccc12)NC(=O)[C@H](Cc1c[nH]c2ccccc12)NC(=O)[C@H](CCCCN)NC(=O)CN)[C@@H](C)O)C(=O)N1CCC[C@H]1C(=O)N[C@@H](Cc1ccccc1)C(=O)O` (H-GKWWKWWRWTVPF-OH), in the experiment with Escherichia coli [3], the MIC is 7 µg/mL (≈ 3.76 µM).
Take `CC[C@H](C)[C@H](NC(=O)[C@H](Cc1c[nH]c2ccccc12)NC(=O)[C@@H](NC(=O)[C@@H](NC(=O)[C@H](Cc1c[nH]c2ccccc12)NC(=O)[C@H](CCCNC(=N)N)NC(=O)[C@@H](N)CCCNC(=N)N)[C@@H](C)CC)C(C)C)C(=O)N[C@@H](CCCNC(=N)N)C(=O)O` (H-RRWIVWIR-OH): the MIC was determined as 8 µg/mL (≈ 6.75 µM) in the experiment on Pseudomonas aeruginosa and 2 µg/mL (≈ 1.69 µM) in the experiment with Escherichia coli [7].
For `NC[C@H]1O[C@@H](O[C@@H](Cn2cc(CCCCCO)nn2)[C@H]2O[C@@H](n3ccc(=O)[nH]c3=O)[C@H](O)[C@@H]2O)[C@H](O)[C@@H]1O`, in experiment [8], the IC50 turned out to be 0.05 µg/mL (≈ 0.0922 µM).
